PubChem BioAssay (NCI)
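Protocol summary: plate cells (96-well), add compound at 5 concentrations, incubate 48 h, interpolate endpoints linearly. Abbreviation: GI50, concentration required for 50% inhibition of growth. TGI: total growth inhibition.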

Assays:
Test in all cases: DTP human tumour cell line panel, 48 h
T-47D breast = test system: T-47D breast
DU-145 prostate = test system: DU-145 prostate
MCF7 breast = test system: MCF7 breast
MDA-N = test system: MDA-N
LXFL 529 NSCLC = test system: LXFL 529 NSCLC
M19-MEL melanoma = test system: M19-MEL melanoma
XF 498 CNS = test system: XF 498 CNS
DLD-1 colon = test system: DLD-1 colon

Row | Compound | GI50 (T-47D breast) | TGI (T-47D breast) | GI50 (DU-145 prostate) | TGI (DU-145 prostate) | GI50 (MCF7 breast) | TGI (MCF7 breast) | TGI (MDA-N) | TGI (LXFL 529 NSCLC) | TGI (M19-MEL melanoma) | TGI (XF 498 CNS) | TGI (DLD-1 colon) | GI50 (MDA-N)
1 | COc1ccc(OC)c(/C=C2\SC(=S)NC2=O)c1 | 18.6 µM | 56.7 µM | 20 µM | 74.3 µM | 23.5 µM | > 100 µM |  |  |  |  |  | 
2 | COc1ccc(-c2nc3sc4c(c3c(=O)[nH]2)CCCCCC4)cc1 |  |  | > 33.2 µM | > 33.2 µM |  |  |  |  |  |  |  | 
3 | C[C@@H]1C[C@H]2CC[C@H](O2)[C@H](C)C(=O)O[C@@H](C)C[C@@H]2CC[C@@H](O2)[C@@H](C)C(=O)O[C@H](C)C[C@H]2CC[C@H](O2)[C@H](C)C(=O)O[C@@H](C)C[C@@H]2CC[C@@H](O2)[C@@H](C)C(=O)O1 |  | 0.857 µM |  | > 100 µM |  | > 100 µM | > 100 µM |  |  |  |  | 
4 | Cc1ccc(-c2cn3ccnc3c(-c3ccc(Cl)cc3)n2)cc1 | 8.12 µM | > 58.5 µM | 0.214 µM | 52.9 µM | 0.28 µM | 19.2 µM |  |  |  |  |  | 
5 | Cc1c(C(=O)C/C(=N\O)C(=O)Nc2cc(Cl)c(Cl)cc2Cl)[n+](=O)c2ccccc2n1[O-] |  |  |  |  |  |  |  | 30.8 µM | 5.1 µM | 46.8 µM | 81.8 µM | 
6 | COc1ccc(-c2csc(N(C(=O)N3CCN(c4cc5c(cc4F)c(=O)c(C(=O)O)cn5C4CC4)CC3)c3ccccc3)n2)cc1 | 2.65 µM | 40.7 µM | 1.49 µM | > 100 µM | 3.09 µM | > 100 µM |  |  |  |  |  | 
7 | COc1cc2c(c(OC)c1)C1c3ccccc3NC(=O)N1CC2 (stereo not drawn) | 5.59 µM | > 100 µM | 4.84 µM | > 100 µM | 3.13 µM | > 100 µM |  |  |  |  |  | 
8 | CCCC(C)c1cc(Cc2cc(Cl)cc(Cl)c2O)c(O)c(Cc2cc(Cl)cc(Cl)c2O)c1 (stereo not drawn) | 0.809 µM | 6.77 µM | 3.89 µM | 15.5 µM | 0.798 µM | 10.2 µM |  |  |  |  |  | 
9 | COc1ccc2sc3c(NCCCN(C)C)nc4ccccc4c3c(=O)c2c1 | 1.86 µM | 4.24 µM | 1.66 µM | 3.07 µM | 1.74 µM | 3.4 µM |  |  |  |  |  | 
10 | CC#C[C@]1(O)CC[C@H]2[C@@H]3CCC4=CC(=O)CCC4=C3[C@@H](c3ccc4c(c3)OCO4)C[C@@]21C | 45.6 µM | 577 µM | 138 µM | 391 µM | 77.2 µM | > 1000 µM |  |  |  |  |  | 
11 | CN(C)C(=O)OC(Cn1cncn1)c1ccc(Cl)cc1Cl (stereo not drawn) |  |  |  |  |  |  |  | > 100 µM | > 100 µM |  | > 100 µM | 
12 | O=C(CN1CCOCC1)Nc1nc(-c2ccc(Cl)cc2)cs1 |  |  |  |  |  |  |  |  | > 100 µM | 26.9 µM | > 100 µM | 
13 | COc1cccc2c1c(C(=O)C(=O)Nc1cc(C)no1)cn2Cc1ccc(F)cc1 | 5.17 µM | > 100 µM | 19.4 µM | > 100 µM | 3.27 µM | > 90.6 µM |  |  |  |  |  | 
14 | CC(CCC(=O)O)[C@H]1CCC2[C@@H]3CC[C@@H]4CC(O)CC[C@]4(C)C3CC[C@@]21C (stereo partly drawn) | 33.7 µM | > 100 µM | 44.4 µM | > 100 µM | 30.2 µM | > 100 µM | > 100 µM |  |  |  |  | 60.6 µM
15 | Cc1ccc(N=Nc2c(O)c(C(=O)O)cc3ccccc23)cc1C |  |  |  |  |  | > 100 µM |  |  |  |  |  | 
16 | CCOC(=O)c1cc(NS(=O)(=O)c2ccccc2)cc(C(=O)OCC)c1 | > 100 µM | > 100 µM | > 100 µM | > 100 µM | > 100 µM | > 100 µM |  |  |  |  |  | 

Row | Compound | GI50 (T-47D breast) | TGI (T-47D breast) | GI50 (DU-145 prostate) | TGI (DU-145 prostate) | GI50 (MCF7 breast) | TGI (MCF7 breast) | TGI (MDA-N) | TGI (LXFL 529 NSCLC) | TGI (M19-MEL melanoma) | TGI (XF 498 CNS) | TGI (DLD-1 colon) | GI50 (MDA-N)
17 | Nc1nc2c(c3ncncc13)C(c1cccc(C(F)(F)F)c1)Cc1ncncc1-2 (stereo not drawn) | 4.15 µM | 82.9 µM | 3.78 µM | > 100 µM | 2.96 µM | > 100 µM |  |  |  |  |  | 
18 | CC1=Nc2ccccc2S/C1=C(/C)NNC(=O)C(N)=O |  |  |  |  |  |  |  | > 100 µM | > 100 µM | > 100 µM | > 100 µM | 
19 | CCCC(=O)OC1C(C(O)CO)OC2OC(C)(C)OC21 (stereo not drawn) |  | > 100 µM |  | > 100 µM |  | > 100 µM | > 100 µM |  | > 100 µM | > 100 µM | > 100 µM | 
20 | COc1ccc(-c2n/c(=C\c3c(O)[nH]c4ccc(OC)cc34)cc3c2=Nc2ccccc2-3)cc1 | 11.8 µM | 40.5 µM |  |  |  |  |  |  |  |  |  | 
21 | COc1ccc2c(c1)/C(=C\c1c(C)nc3sccn13)C(=O)N2 | 1.98 µM | > 67.2 µM | 0.55 µM | > 100 µM |  | > 100 µM |  |  |  |  |  | 
22 | O=C1[C@H]2ON(c3ccccc3)C(c3ccccc3Cl)[C@H]2C(=O)N1c1ccc(Cc2ccc(N3C(=O)[C@@H]4ON(c5ccccc5)C(c5ccccc5Cl)[C@@H]4C3=O)cc2)cc1 (stereo partly drawn) |  |  |  |  |  |  |  | > 100 µM | > 100 µM |  | > 100 µM | 
23 | N#Cc1c(N2CCCC2)[nH]c(=O)c(C(c2c(Cl)cccc2Cl)c2c(O)c(C#N)c(N3CCCC3)[nH]c2=O)c1O | 3.13 µM | 13.4 µM | 5.57 µM | 18.4 µM | 14.2 µM | 49.8 µM |  |  |  |  |  | 
24 | O=C(/C=C/c1ccccc1)c1cc(Br)ccc1O |  | 25.5 µM |  | 28.4 µM |  | 31.5 µM | 33.3 µM |  |  |  |  | 
25 | Oc1cccc2ccc(N/N=C/c3cc(CN4CCCCC4)c(O)c4ncccc34)nc12 | 0.192 µM | 14.9 µM | 0.109 µM | 3.18 µM | 0.034 µM | 1.28 µM |  |  |  |  |  | 
26 | CN1CCC(n2cnc(-c3ccc(F)cc3)c2-c2ccnc(NCCO)n2)CC1 | > 25 µM | > 25 µM | 22.3 µM | > 25 µM | 3.78 µM | > 25 µM |  |  |  |  |  | 
27 | O=C(NCCO)Nc1ccc(-c2nc(N3CCOCC3)c3cccn3n2)cc1 | < 0.0212 µM | 0.125 µM | 0.232 µM | > 58.5 µM | 0.0703 µM | > 100 µM |  |  |  |  |  | 
28 | CCN(CC)c1ccc(C(=O)c2ccccc2C(=O)O)c(O)c1 |  |  |  |  |  |  |  | > 100 µM | > 100 µM | > 100 µM |  | 
29 | Cn1cc(-c2ccc3occ(-c4cccc(-c5ccncc5)c4)c3n2)cn1 |  |  | 2.65 µM | > 100 µM | 0.419 µM | > 100 µM |  |  |  |  |  | 
30 | CCCCC(CC)CN=C(N)NC(N)=NCCCCCCN=C(N)NC(N)=NCC(CC)CCCC (stereo not drawn) | 2.21 µM | 4.9 µM | 3.26 µM | 11.4 µM |  |  |  |  |  |  |  | 
31 | COc1ccc(OC)c(NC(=O)C2=C(C)NC(C)=C(C(=O)Nc3cc(OC)ccc3OC)C2c2ccccc2)c1 |  |  |  |  |  |  |  | > 100 µM | > 100 µM |  | > 100 µM | 
